≈ marks a conversion by molar mass, not a printed value.
Tests used:
[1] = system: Staphylococcus aureus; experiment: microbe, parasite or virus in culture; details: ATCC 43300, 18 h, ASSAY_TEST Inhibition of Bacterial Growth, detection method Absorption (OD600), MEDIA CAMHB, plate type 384well, NBS, CORNING #3640
Description: Antibacterial activity against Staphylococcus aureus MRSA ATCC 43300 (CO-ADD:GP_020); MIC in CAMBH media, using NBS plates, by OD(600)

[2] = system: Pseudomonas aeruginosa; experiment: Antibacterial activity against Pseudomonas aeruginosa PAO397 [PAO1 d(mexAB-oprM) d(mexCD-oprJ) d(mexEF-oprN) d(mexJKL) d(mexXY) d(opmH)] (CO-ADD:GN_211); MIC in CAMBH media using NBS plates, by OD(600); format: functional; details: ASSAY_TEST Inhibition of Bacterial Growth, detection method Absorption (OD600), MEDIA CAMHB, plate type 384well, CORNING #3640, time 18 hr
[3] = system: Pseudomonas aeruginosa; experiment: microbe, parasite or virus in culture; details: ATCC 27853, 18 h, ASSAY_TEST Inhibition of Bacterial Growth, detection method Absorption (OD600), MEDIA CAMHB, plate type 384well, NBS, CORNING #3640
Description: Antibacterial activity against Pseudomonas aeruginosa ATCC 27853 (CO-ADD:GN_042); MIC in CAMBH media using NBS plates, by OD(600)

[4] = system: Acinetobacter baumannii; experiment: microbe, parasite or virus in culture; details: ATCC 19606, 18 h, ASSAY_TEST Inhibition of Bacterial Growth, detection method Absorption (OD600), MEDIA CAMHB, plate type 384well, NBS, CORNING #3640
Description: Antibacterial activity against Acinetobacter baumannii ATCC 19606 (CO-ADD:GN_034); MIC in CAMBH media using NBS plates, by OD600

[5] = system: Escherichia coli; experiment: microbe, parasite or virus in culture; details: ATCC 25922, 18 h, ASSAY_TEST Inhibition of Bacterial Growth, detection method Absorption (OD600), MEDIA CAMHB, plate type 384well, NBS, CORNING #3640
Description: Antibacterial activity against Escherichia coli ATCC 25922 (CO-ADD:GN_001); MIC in CAMBH media using NBS plates, by OD(600)

[6] = system: Cryptococcus neoformans
Description: Antifungal activity against Cryptococcus neoformans H99 ATCC 208821 (CO-ADD:FG_002); MIC in YNB media using NBS plates, by Resazurin OD(600-570)

[7] = system: Klebsiella pneumoniae; experiment: microbe, parasite or virus in culture; details: ATCC 700603, 18 h, ASSAY_TEST Inhibition of Bacterial Growth, detection method Absorption (OD600), MEDIA CAMHB, plate type 384well, NBS, CORNING #3640
Description: Antibacterial activity against Klebsiella pneumoniae MDR ATCC 70063 (CO-ADD:GN_003); MIC in CAMBH media using NBS plates, by OD(600)

[8] = system: HEK293; experiment: cells; format: functional, Homo sapiens, ATCC CRL1573; details: Homo sapiens, ATCC CRL1573, HEK293; ASSAY_TEST Inhibition of Cell Viability; detection method Resazurin; Fluorescence (ex560/em590); MEDIA DMEM with 10% FBS; plate type 384well; TC; CORNING #3712; time 18 hr; read-out: CC50
[9] = system: Candida albicans; experiment: microbe, parasite or virus in culture; details: ATCC 90028, ASSAY_TEST Inhibition of Fungal Growth, detection method Absorption (OD530), plate type 384well, NBS, CORNING #3640
Description: Antifungal activity against Candida albicans ATCC 90028 (CO-ADD:FG_001); MIC in YNB media using NBS plates, by OD630

Row | Compound | MIC [1] | MIC [2] | MIC [3] | MIC [4] | MIC [5] | MIC [6] | MIC [7] | CC50 [8] | MIC [9]
1 | O=c1cc(Nc2ccc3ccccc3c2)[nH]c(=O)[nH]1 | > 20 µM | > 20 µM | > 20 µM | > 20 µM | > 20 µM | > 20 µM | > 20 µM | > 20 µM | > 20 µM
2 | COc1ccc(NC(=O)c2cc3ccccn3n2)cc1 | > 20 µM | > 20 µM | > 20 µM | > 20 µM | > 20 µM | > 20 µM | > 20 µM | > 20 µM | > 20 µM
3 | COc1ccc2nc(-c3ccccc3)cc(O)c2c1 | > 20 µM | > 20 µM | > 20 µM | > 20 µM | > 20 µM | > 20 µM | > 20 µM | 2.85 µM | > 20 µM
4 | CC(C)n1cnc2c(NCc3ccccc3)nc(NCc3ccccc3)nc21 | > 20 µM | > 20 µM | > 20 µM | > 20 µM | > 20 µM | > 20 µM | > 20 µM | > 20 µM | > 20 µM
5 | O=C(Nc1ccc(F)cc1)c1nn(-c2ccccc2)c(=O)cc1Cl | > 20 µM | > 20 µM | > 20 µM | > 20 µM | > 20 µM | > 20 µM | > 20 µM | 8.2 µM | > 20 µM
6 | CCOC(=O)N1CCN(c2ccc(Cl)cc2)CC1 | > 20 µM | > 20 µM | > 20 µM | > 20 µM | > 20 µM | > 20 µM | > 20 µM | > 20 µM | > 20 µM
7 | COc1ccc(C)cc1NC(=O)c1ccc(S(=O)(=O)N2CCCCC2)cc1 | > 20 µM | > 20 µM | > 20 µM | > 20 µM | > 20 µM | > 20 µM | > 20 µM | > 20 µM | > 20 µM
8 | O=C(Cc1ccccc1F)Nc1nc2ccccc2[nH]1 | > 20 µM | > 20 µM | > 20 µM | > 20 µM | > 20 µM | > 20 µM | > 20 µM | > 20 µM | > 20 µM
9 | CC(=O)N[C@H](C)C(=O)N[C@H](Cc1ccccc1)C(=O)O | > 20 µM | > 20 µM | > 20 µM | > 20 µM | > 20 µM | > 20 µM | > 20 µM | > 20 µM | > 20 µM
10 | COc1ccc(SC(=O)N[C@H](CCC(=O)O)C(=O)O)cc1 | > 20 µM | > 20 µM | > 20 µM | > 20 µM | > 20 µM | > 20 µM | > 20 µM | > 20 µM | > 20 µM
11 | Fc1ccc2c(/C=C/c3nnn[nH]3)c[nH]c2c1 | > 20 µM | > 20 µM | > 20 µM | > 20 µM | > 20 µM | > 20 µM | > 20 µM | > 20 µM | > 20 µM
12 | O=C(Nc1nnc(-c2ccccc2)o1)c1ccc(F)cc1 | 20 µM (≈ 5.67 µg/mL) | > 20 µM | > 20 µM | > 20 µM | > 20 µM | 20 µM (≈ 5.67 µg/mL) | > 20 µM | > 20 µM | > 20 µM
13 | O=C(Nc1nnc(-c2ccc(Cl)cc2)o1)c1ccc(F)cc1 | > 20 µM | > 20 µM | > 20 µM | > 20 µM | > 20 µM | > 20 µM | > 20 µM | > 20 µM | > 20 µM
14 | CCc1nc(N)nc(N)c1C#CC(C)c1cc(OC)cc(-c2ccncc2)c1 (stereo unspecified) | 2.5 µM (≈ 0.934 µg/mL) | > 20 µM | > 20 µM | > 20 µM | > 20 µM | > 20 µM | > 20 µM | 6.39 µM | > 20 µM
15 | Cc1ccc(NC(=O)c2cc(Cl)ccc2O)cc1 | > 20 µM | > 20 µM | > 20 µM | > 20 µM | > 20 µM | > 20 µM | > 20 µM | 3.91 µM | > 20 µM
16 | O=C(Nc1ncc(Cc2cccc3ccccc23)s1)C1CCCCC1 | > 20 µM | > 20 µM | > 20 µM | > 20 µM | > 20 µM | > 20 µM | > 20 µM | > 20 µM | > 20 µM
17 | CC1(C)Cc2c(C#N)c(SCCc3ccccc3)nc(N3CCOCC3)c2CO1 | > 20 µM | > 20 µM | > 20 µM | > 20 µM | > 20 µM | > 20 µM | > 20 µM | > 20 µM | > 20 µM
18 | NC[C@H]1OB(O)c2c(OCCCO)cccc21 | 20 µM (≈ 4.74 µg/mL) | 2.5 µM (≈ 0.593 µg/mL) | 5 µM (≈ 1.19 µg/mL) | 5 µM (≈ 1.19 µg/mL) | 2.5 µM (≈ 0.593 µg/mL) | > 20 µM | 2.5 µM (≈ 0.593 µg/mL) | > 20 µM | > 20 µM
19 | CC(Cc1ccccc1)C(=O)Nc1ccc(Cl)cc1C(=O)O (stereo unspecified) | > 20 µM | > 20 µM | > 20 µM | > 20 µM | > 20 µM | > 20 µM | > 20 µM | > 20 µM | > 20 µM
20 | O=C(O)C(Cc1c[nH]c2ccccc12)N1C(=O)c2ccccc2C1=O (stereo unspecified) | > 20 µM | > 20 µM | > 20 µM | > 20 µM | > 20 µM | > 20 µM | > 20 µM | > 20 µM | > 20 µM
21 | O=C1NC(=O)C(Br)=C1Br | > 20 µM | > 20 µM | > 20 µM | > 20 µM | > 20 µM | 10 µM (≈ 2.55 µg/mL) | > 20 µM | 3.28 µM | 20 µM (≈ 5.1 µg/mL)
22 | O=C1NC(=S)N/C1=C\c1cc(Br)cc(Br)c1O | > 20 µM | 20 µM (≈ 7.56 µg/mL) | > 20 µM | > 20 µM | > 20 µM | > 20 µM | > 20 µM | > 20 µM | > 20 µM
23 | Cc1c(CN(C)C(=O)/C=C/c2cnc3c(c2)C(C)(C)C(=O)N3)oc2ccccc12 | 1.25 µM (≈ 0.487 µg/mL) | > 20 µM | > 20 µM | > 20 µM | > 20 µM | > 20 µM | > 20 µM | > 20 µM | > 20 µM
24 | CN(C)[C@@H]1C(=O)C(C(N)=O)=C(O)[C@@]2(O)C(=O)C3=C(O)c4c(O)c(NC(=O)CN5CCCC5)cc(F)c4C[C@H]3C[C@@H]12 | 0.312 µM (≈ 0.175 µg/mL) | 0.625 µM (≈ 0.349 µg/mL) | 0.625 µM (≈ 0.349 µg/mL) | > 20 µM | 0.313 µM (≈ 0.175 µg/mL) | > 20 µM | 10 µM (≈ 5.59 µg/mL) | > 20 µM | > 20 µM
25 | O=S(=O)(Nc1ccccc1)c1ccc(NC(=S)Nc2ccccc2)cc1 | > 20 µM | > 20 µM | > 20 µM | > 20 µM | > 20 µM | > 20 µM | > 20 µM | > 20 µM | > 20 µM
26 | N#CCN1C(=O)COc2cc(F)c(N3C(=O)c4ccccc4C3=O)cc21 | > 20 µM | > 20 µM | > 20 µM | > 20 µM | > 20 µM | > 20 µM | > 20 µM | > 20 µM | > 20 µM
27 | O=C(c1ccccc1)N1CCN(c2ccccc2NC(=O)C(Cl)(Cl)Cl)CC1 | > 20 µM | > 20 µM | > 20 µM | > 20 µM | > 20 µM | > 20 µM | > 20 µM | > 20 µM | > 20 µM
28 | OC1O[C@H](CSc2ccc(F)cc2)[C@@H](O)[C@H]1O (stereo partly specified) | > 20 µM | > 20 µM | > 20 µM | > 20 µM | > 20 µM | > 20 µM | > 20 µM | > 20 µM | > 20 µM
29 | CN(C)CCNC(=O)c1cccc2cccnc12 | > 20 µM | > 20 µM | > 20 µM | > 20 µM | > 20 µM | > 20 µM | > 20 µM | > 20 µM | > 20 µM
